The subject of series [1] is HeLa human cervical carcinoma cell line. Briefly: MTT in vitro antitumor (antiproliferative) assay, HeLa. It counts as cell-based. The conditions noted are these: MTT, 72 h incubation, read-out: IC50 HeLa. How it is done: (§1) The in vitro antitumor activities were evaluated on human cancer cell lines SGC-7901 and HeLa by the MTT assay, using irinotecan as the reference compound.
(§2) The in vitro antitumor activity was evaluated on two human cancer cell lines with the MTT method. SGC-7901 is a human gastric adenocarcinoma cancer cell line and HeLa is a human cervical carcinoma cell line. Cells were provided by the Jilin Province Tumor Institute. Cells were maintained in IMDM medium supplemented with 10% fetal calf serum, 2 mM glutamine, 100 U/mL penicillin, and 100 μg/mL streptomycin, at 37 °C in a humidified atmosphere containing 5% CO2. The human cancer lines SGC-7901 and HELA at a concentration of […] were incubated in a 96-well microtiter plate (100 μL in every well) for 24 h (37 °C, 5%CO2). Then the cells were incubated continuously for 72 h following various concentrations of test drugs were added. The concentrations are 50 μM, 10 μM, 2 μM, 0.4 μM, 0.08 μM, 0.016 μM, 0.0032 μM, respectively. After the 100 μL 0.05% MTT solution was added to each well, the plate was incubated for a further 4 h before removal of medium, the media removed. Formazan crystals were dissolved with 100 μL DMSO, then the absorbance was detected at 490 nm.

Details of series [2]: method as in PMID 11716702, PMID 15217940, PMID 19495753. The conditions noted are these: cited from earlier work.
A further series has as its target AChE from electric eel (Electrophorus electricus, UniProt O42275). Briefly: AChE inhibition assay (modified Ellman method). It counts as biochemical. The conditions noted are these: electric eel AChE, phosphate buffer pH 7.3, 37 °C; read-out: AChE IC50. From the text:
Irinotecan has been reported to be a potent inhibiter of AChE, and inhibition of this enzyme causes acute cholinergic diarrhea. Unlike irinotecan, the compounds we assayed were only weak inhibitors of AChE. […] One possible explanation is that the active site of AChE is present at the bottom of a gorge that is lined with hydrophobic amino acid residues. The terminal dipiperidino moiety in CPT-11 that interacts with amino acid residues within AChE plays a major role in enzyme inhibition, which has been confirmed by X-ray crystallographic studies.
The AChE inhibition by all compounds was studied according to a modification of the method of Ellman et al.. The activity was assayed with AChE from electric eel in the presence or absence of the test compounds in phosphate buffer (pH7.3). After the incubation at 37 °C for 1 min, 0.38 mM 5,5-dithiobisnitrobenzoic acid and 0.56 mM ATCh were added to the buffer. The changes in absorbance were read at 412 nm, per 15 s intervals for 3 min by a spectrophotometer (UV-2500, Shimadzu Corp., Kyoto, Japan).
In general terms: Ellman's reagent forms a yellow product with free thiols.

Series [3] has as its system SGC-7901 human gastric adenocarcinoma cancer cell line. Briefly: MTT in vitro antitumor (antiproliferative) assay, SGC-7901. It counts as cell-based. The conditions noted are these: Homo sapiens, SGC-7901; MTT, 72 h incubation; read-out: IC50 SGC-7901. How it is done: as §1, §2
Series [4] relates to human colon adenocarcinoma SW1116 xenografts. In words: Tumor growth inhibition in human colon adenocarcinoma SW1116 xenografts in nude mice. It counts as in vivo. As to conditions: 60 mg/kg; for Body Weight Change: once per day for 6 days, nude mice. How it is done: The antitumor activity of 5e, compared with CPT-11 and SN-38, was investigated in human colon adenocarcinoma SW1116 xenografts in nude mice. The model animals were divided into four experimental groups, eight animals per group. Tested compouds were each administered by injection in the tumor section once per day for contiguous 6 days. The injection doses of test compound 5e, CPT-11, and SN-38 were 60 mg/kg, respectively. Using the vehicle group as the control, we tested the inhibitory activities of these compounds for 6 days and measured the changes in body weight and tumor size every 2 days. […] No toxic death occurred after drug treatment, and the body weight losses induced by 5e, CPT-11, and SN-38 at the given dose were similar.
A general note: Xenograft models place foreign cells or tissue in a host animal.

Chain of AChE from electric eel (O42275 24-633): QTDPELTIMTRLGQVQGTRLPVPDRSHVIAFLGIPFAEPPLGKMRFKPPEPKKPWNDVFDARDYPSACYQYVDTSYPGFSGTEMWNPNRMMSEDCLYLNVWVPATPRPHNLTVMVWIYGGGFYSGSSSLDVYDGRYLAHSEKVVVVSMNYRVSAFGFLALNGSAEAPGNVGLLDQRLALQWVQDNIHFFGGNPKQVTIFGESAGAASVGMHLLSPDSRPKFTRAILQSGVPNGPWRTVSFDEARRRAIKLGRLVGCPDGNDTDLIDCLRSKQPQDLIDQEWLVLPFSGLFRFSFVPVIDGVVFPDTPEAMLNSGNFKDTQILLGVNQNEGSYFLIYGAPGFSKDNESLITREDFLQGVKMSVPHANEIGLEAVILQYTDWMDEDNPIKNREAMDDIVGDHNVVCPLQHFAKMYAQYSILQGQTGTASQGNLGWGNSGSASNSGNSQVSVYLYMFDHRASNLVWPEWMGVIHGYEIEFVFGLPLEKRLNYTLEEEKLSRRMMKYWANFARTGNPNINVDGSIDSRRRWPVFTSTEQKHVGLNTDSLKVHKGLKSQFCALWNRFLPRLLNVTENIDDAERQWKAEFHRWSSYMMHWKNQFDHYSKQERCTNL

`CCc1c2c(nc3ccc(OC(=O)N4CCC(N5CCCCC5)CC4)cc13)-c1cc3c(c(=O)n1C2)COC(=O)[C@]3(O)CC` [Irinotecan, 7-ethyl-10-[4-(1-piperidino)-1-piperidino]-carbonyloxycamptothecin]: the IC50 in series [1] is 1320 ± 130 nM; on AChE from electric eel, 200 nM; in series [3], 7380 ± 1240 nM. In addition, the “bioconversion efficiency from irinotecan to the active form SN-38” value in series [2] is recorded as 4%–5%. In series [4] (injection in the tumor section once per day for 6 days, SW1116 xenograft nude mice, x ± SD), the “Tumor Weight” value was found to be 0.17 ± 0.04 g/10g. Further, the “Inhibitory Rate” value in series [4] (injection in the tumor section once per day for 6 days, day 6, vs vehicle) was 51%. Besides, the “Body Weight Change” value in series [4] was -3.10 g; in series [4] (listed as CPT-11), “similar”.

What is called IC50 is the concentration needed to halve the response being measured.

Source of the values: article PMC6270839, “Synthesis and Biological Evaluation of Novel 10-Substituted-7-ethyl-10-hydroxycamptothecin (SN-38) Prodrugs” (Molecules, 2014).
